Results taken from US7446092B2, “Glycogen synthase kinase-3 inhibitors” (Tel Aviv University Future Technology Development L.P., priority 2002, dated 2008).
Square brackets hold non-standard residues; d marks the D form. Ends that are not written are not given here. Peptide text beside a SMILES is read from it. * marks the point of attachment. pY = N[C@@H](Cc1ccc(OP(=O)(O)O)cc1)C(=O)O; Myristoyl = CCCCCCCCCCCCCC(=O)*; pS = N[C@@H](COP(=O)(O)O)C(=O)O

Assays:
[1] = molecular target: GSK-3β (Oryctolagus cuniculus, UniProt A0A5F9DUX8); experiment: In vitro GSK-3 inhibition assay (phosphorylation of PGS-1 peptide substrate); assay type: biochemical, rabbit; details: for Inhibitor functionality: GSK-3 inhibitor; for GSK-3 inhibition (in words): in vitro, cpL803-mts tested at 0-300 μM
Protocol: In vitro inhibition assays: Purified recombinant rabbit GSK-3β (Eldar-Finkelman et al., 1996) was incubated with peptide substrate PGS-1 ([…](p)EDEEE) (SEQ ID NO:15) and with a peptide inhibitor at indicated concentrations. The reaction mixture included Tris 50 mM (pH=7.3), 10 mM MgAc, ^32P[γ-ATP] (100 μM), 0.01% β-mercaptoethanol, and was incubated for 10 minutes at 30° C. Reactions were spotted on phosphocellulose paper (p81), washed with 100 mM phosphoric acid, and counted for radioactivity (as described in Eldar-Finkelman et al., 1996).

[2] = molecular target: T1, Cdc2 (Homo sapiens, UniProt P06493); experiment: Effect of L803 on Cdc2 activity (histone H1 substrate); assay type: biochemical; details: L803 200 μM
T1 construct: purchased New England BioLabs (Beverly, Mass.)
Protocol: The effect of L803 (200 μM) on other protein kinases was tested by incubating Cdc2 (1 unit) with a reaction mixture similar to that described hereinabove and containing histone H1 substrate (5 μg). The reactions were boiled with SDS sample buffer, separated on gel electrophoresis and autoradiographed.

[3] = system: glycogen synthase; experiment: Glycogen synthase activity in HEK 293 cells; assay type: cell-based
Description: Glycogen synthase activity in HEK 293 cells: To test the impact of the conjugates of the present invention in intact cells, the membrane preamble L803 inhibitor L803-mts (N-Myristol-GKEAPPAPPQS(p)P) (SEQ ID NO:16) and two similarly modified respective controls LE803-mts (N-Myristol-GKEAPPAPPQSEP) (SEQ ID NO:17) and LS803-mts (N-Myristol-GKEAPPAPPQSP) (SEQ ID NO:18), in which the phosphorylated serine was replaced with glutamic acid (that usually mimics a phosphorylated group) or a serine residue, respectively, were designed and synthesized.
HEK 293 cells were grown in 10 cm plates with Dulbecco's modified Eagle medium (DMEM) supplemented with 10% fetal calf serum (FCS). On the day of the experiment, cells were incubated with low glucose medium supplemented with 0.5% FCS for 1 hour, followed by the addition of the conjugate L803-mts or its respective controls LE803-mts and LS803-mts at various concentrations, for additional 2.5 hours. A vehicle control of DMSO (0.1% DMSO) was also tested. […] The reactions were then spotted on ET31 (Whatman) papers, washed with 66% ice-cold ethanol, and counted for radioactivity. Glycogen synthase assays were measured in the presence of 0.1 mM glucose-6-phosphate (G6P). […]

[4] = Forced swimming test (FST); assay type: in vivo, C57BL/6J mice; details: vs control-treated animals
Protocol: (§1) Forced Swimming Test (FST): C57BL/6J mice were housed in individual cages with free access to water in a temperature-controlled facility with a 12 hours light/dark cycle. Animals at age 14-16 weeks were used, and each experimental group consisted of randomly chosen 10-20 mice. At day one, mice were subjected to pre-FST (see below). At day two, mice were anesthetized with halothane (inhalation) and were unilaterally intracerebroventricularly injected (i.c.v., 1 μl of 25 mM stock solution) with L803-mts or a scrambled control peptide (cpL803-mts). Animals were subjected to FST once 1, 3, and 12 hours after reagents were administrated. The FST procedure used was similar to that initially described by Porsolt et al. (1977). Briefly, animals were placed at day one in a large cylinder (30 cm×45 cm) of 25° C. water for a 15-minutes period. At day two (24 hours later), treated mice were placed in the cylinder of water for a 6-minutes period. The duration of immobility was monitored during the last 4 minutes of the 6-minute test. Immobility period was defined as the time spent by the animal floating in the water without struggling and making only those movements necessary to keep its head above the water. All testing took place between 11:00 and 15:00. After completion the FST, mice were scarified, and hippocampuses were removed, frozen in liquid nitrogen, and stored at −80° C. Animal care followed the institutional animal care and used committee.

[5] = Glucose tolerance test in fasted C57Bl/6J mice; assay type: in vivo; details: vs control peptide
Protocol: Glucose tolerance tests: Glucose tolerance tests were performed in overnight fasted C57Bl/6J mice (12 hours). L803-mts or LE803-mts were administrated intraperitoneally (i.p.) to mice (400 nmol peptide), glucose (1 gram/kg) was injected i.p. one hour thereafter and blood samples were collected from tail vein at various time points. Blood glucose levels were immediately measured by Sugar Accutrend Sensor,(Roche, Germany)).

[6] = system: β-catenin; experiment: β-catenin levels in mouse hippocampus extracts (Western blot); assay type: in vivo
Protocol: as §1
Hippocampus extracts: Hippocampus tissue was homogenized with ice cold buffer H (50 mM β-glycerophosphate pH=7.3, 10% glycerol, 1 mM EGTA, 1 mM EDTA, 10 mM NaF, 5 mM NaPPi, 25 μg/ml leupeptin, 25 μg/ml aprotinin, 500 nM microcystine LR and 1% Triton X100). […] Equal amounts of proteins (30 μg) as determined by Bradford analysis (Bradford, […]) were boiled with Laemmli sample buffer and subjected to gel electrophoresis (10% polyacrylamide gel), transferred to nitrocellulose membranes, and immunoblotted with specific monoclonal antibodies for β-catenin (Transduction laboratories, USA).

[7] = system: mouse adipocytes; experiment: Glucose uptake in isolated adipocytes; assay type: cell-based
Protocol: Glucose uptake in isolated adipocytes: Mice adipocytes were isolated from epididymal fat pad by digestion with 0.8 mg/ml collagenase (Worthington Biochemical) as described previously (Lawrence et al., 1977). Digested fat pads were passed through nylon mesh and cells were washed 3 times with Krebs-bicarbonate buffer (pH=7.4) containing 1% bovine serum albumin (Fraction V, Boehringer Mannheim, Germany), 10 mM HEPES (pH=7.3), 5 mM glucose and 200 nM adenosine. Cells were incubated with L803-mts or LE803-mts at indicated concentrations for 1 hour, followed by addition of 2-deoxy [^3H] glucose (0.5 μci/vial) for 10 minutes. The assay was terminated by centrifugation of cells through dinonylphthalate (ICN, USA). ^3H was thereafter quantitated by liquid scintillation analyzer (Packard). Nonspecific uptake of 2-deoxy-[^3H] glucose was determined by the addition of cytochalasin B (50 μM) 30 minutes prior to the addition of radioactive material.
In another set of experiments, adipocytes were treated with various concentrations of L803-mts 1 hour before addition of sub-optimal concentration of insulin (5 nM). Glucose uptake was determined as described above.

[8] = molecular target: T2, GSK-3 (Oryctolagus cuniculus, UniProt G1T8E2); experiment: In vitro test of peptides as GSK-3 substrates; assay type: biochemical, rabbit; details: S2(p) of p9CREB replaced
T2 construct: made in house
T2 sequence (G1T8E2 1-432): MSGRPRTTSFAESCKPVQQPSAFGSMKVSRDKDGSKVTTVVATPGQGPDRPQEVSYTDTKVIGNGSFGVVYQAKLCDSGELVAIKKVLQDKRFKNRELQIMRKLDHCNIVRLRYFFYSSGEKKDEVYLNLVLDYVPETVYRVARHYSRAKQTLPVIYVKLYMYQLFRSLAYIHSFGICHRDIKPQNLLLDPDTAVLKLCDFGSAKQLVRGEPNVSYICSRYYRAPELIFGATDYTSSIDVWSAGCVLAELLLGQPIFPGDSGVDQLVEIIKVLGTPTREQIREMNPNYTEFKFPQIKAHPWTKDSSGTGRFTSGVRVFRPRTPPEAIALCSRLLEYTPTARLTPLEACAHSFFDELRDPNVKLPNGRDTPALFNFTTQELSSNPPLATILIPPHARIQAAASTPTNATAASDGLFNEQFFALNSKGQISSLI

GSK-3β, sequence (A0A5F9DUX8 1-420): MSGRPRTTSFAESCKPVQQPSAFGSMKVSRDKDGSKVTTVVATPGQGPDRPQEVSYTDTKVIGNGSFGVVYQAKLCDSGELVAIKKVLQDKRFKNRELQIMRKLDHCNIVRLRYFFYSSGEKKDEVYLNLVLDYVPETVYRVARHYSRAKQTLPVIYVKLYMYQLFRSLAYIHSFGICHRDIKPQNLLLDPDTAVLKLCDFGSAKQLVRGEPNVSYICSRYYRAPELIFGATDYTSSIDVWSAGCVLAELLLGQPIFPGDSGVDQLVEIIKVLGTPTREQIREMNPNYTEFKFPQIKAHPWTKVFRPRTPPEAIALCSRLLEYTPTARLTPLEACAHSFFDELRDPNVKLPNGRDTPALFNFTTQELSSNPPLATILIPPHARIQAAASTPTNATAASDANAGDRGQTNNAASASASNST
T1 sequence (P06493 whole entry): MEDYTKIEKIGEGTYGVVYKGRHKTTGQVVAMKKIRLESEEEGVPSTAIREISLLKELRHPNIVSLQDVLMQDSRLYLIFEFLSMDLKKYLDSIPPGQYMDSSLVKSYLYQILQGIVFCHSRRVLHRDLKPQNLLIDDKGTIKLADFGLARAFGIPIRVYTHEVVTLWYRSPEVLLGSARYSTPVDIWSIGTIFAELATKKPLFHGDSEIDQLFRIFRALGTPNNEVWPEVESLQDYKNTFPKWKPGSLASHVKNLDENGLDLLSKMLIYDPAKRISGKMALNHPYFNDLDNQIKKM
T1 sequence (P14635 whole entry partner): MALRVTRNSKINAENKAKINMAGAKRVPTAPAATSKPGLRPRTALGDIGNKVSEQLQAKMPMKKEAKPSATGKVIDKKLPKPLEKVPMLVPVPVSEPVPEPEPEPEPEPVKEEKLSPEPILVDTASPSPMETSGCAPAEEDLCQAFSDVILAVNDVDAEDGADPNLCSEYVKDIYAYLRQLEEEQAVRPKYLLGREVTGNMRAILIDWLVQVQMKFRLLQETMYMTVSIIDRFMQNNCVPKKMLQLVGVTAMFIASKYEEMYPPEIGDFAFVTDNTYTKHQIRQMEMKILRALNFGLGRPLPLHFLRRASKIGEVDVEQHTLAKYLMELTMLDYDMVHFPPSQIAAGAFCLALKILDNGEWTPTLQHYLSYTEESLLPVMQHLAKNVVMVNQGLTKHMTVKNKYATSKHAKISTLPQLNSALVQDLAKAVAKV

## CC[C@H](C)[C@H](N)C(=O)N[C@@H](CC(C)C)C(=O)N[C@@H](C)C(=O)N[C@@H](CCCNC(=N)N)C(=O)N[C@@H](CCCNC(=N)N)C(=O)N1CCC[C@H]1C(=O)N[C@@H](COP(=O)(O)O)C(=O)N[C@@H](Cc1ccc(O)cc1)C(=O)N[C@@H](CCCNC(=N)N)C(=O)O [Peptide 6, ILARRPS(p)YR] (H-ILARRP[pS]YR-OH)
[1]
  Inhibitor functionality: * (weak inhibition activity (IC50 > 800 μM))
  GSK-3 inhibition (in words): eliminated the inhibitory capacity

## C[C@H](NC(=O)[C@H](CCC(=O)O)NC(=O)[C@@H](N)CCCCN)C(=O)N1CCC[C@H]1C(=O)N1CCC[C@H]1C(=O)N[C@@H](C)C(=O)N1CCC[C@H]1C(=O)N1CCC[C@H]1C(=O)N[C@@H](CCC(N)=O)C(=O)N[C@@H](COP(=O)(O)O)C(=O)N1CCC[C@H]1C(=O)O [Peptide 9, KEAPPAPPQS(p)P] (H-KEAPPAPPQ[pS]P-OH; N-terminus and C-terminus assumed)
[2]
  Inhibition of cdc2 (in words): not inhibited

## C[C@H](NC(=O)[C@@H]1CCCN1)C(=O)N1CCC[C@H]1C(=O)N1CCC[C@H]1C(=O)N[C@@H](CCC(N)=O)C(=O)N[C@@H](COP(=O)(O)O)C(=O)N1CCC[C@H]1C(=O)O [Peptide 12, PAPPQS(p)P] (H-PAPPQ[pS]P-OH)
[1]
  Inhibitor functionality: * (weak inhibition activity (IC50 > 800 μM))

## CCCCCCCCCCCCCC(=O)NCC(=O)N[C@@H](CCCCN)C(=O)N[C@@H](CCC(=O)O)C(=O)N[C@@H](C)C(=O)N1CCC[C@H]1C(=O)N1CCC[C@H]1C(=O)N[C@@H](C)C(=O)N1CCC[C@H]1C(=O)N1CCC[C@H]1C(=O)N[C@@H](CCC(N)=O)C(=O)N[C@@H](COP(=O)(O)O)C(=O)N1CCC[C@H]1C(=O)O [Peptide L803-mts, N-Myristol-GKEAPPAPPQS(p)P] (Myristoyl-GKEAPPAPPQ[pS]P-OH; C-terminus assumed)
[3]
  Concentrations inhibiting endogenous GSK-3: 10 to 40 µM
[3]; 2.5 hours, compared with cells treated with LE803-mts or LS803-mts
  Increase of glycogen synthase activity: 2.5 fold
[4]; FST 1 hour after i.c.v. injection
  Shortening of immobility time: 37%±3.7%
[4]; FST 3 hours after i.c.v. injection
  Shortening of immobility time: 44%±5.7%
[4]; FST 12 hours after i.c.v. injection
  Shortening of immobility time: 16%±0.6%
[5]; 400 nmol i.p. one hour before glucose 1 gram/kg
  Reduction in the blood glucose peak and in glucose levels 1 and 2 hours after glucose: 20%
[5]; 400 nmol i.p.
  Glucose tolerance (in words): better glucose tolerance
[6]; 1 hour after i.c.v. L803-mts
  Increase in β-catenin levels: 20%
[6]; 3 hours after i.c.v. L803-mts
  Increase in β-catenin levels: 30%
[6]; 12 hours post administration
  Increase in β-catenin levels: 50%
[7]; L803-mts 1-10 μM followed by sub-optimal insulin (5 nM)
  Effect on insulin-induced glucose uptake (in words): additive effect
[7]; mouse adipocytes, no insulin, compared with cells treated with LE803-mts or LS803-mts
  Increase of 2-deoxyglucose incorporation: approximately 2.5 fold

## ILSRPPEYR [Peptide 3]
[8]
  Phosphorylation by GSK-3 (in words): eliminated the capacity of GSK-3 to phosphorylate these peptides

## ILSRPPY(p)YR (ILSRPP[pY]YR; also: phosphotyrosine, Y7 or Y8 (written PPY(p)YR)) [Peptide 4]
[8]
  Phosphorylation by GSK-3 (in words): eliminated the capacity of GSK-3 to phosphorylate these peptides

## KEEPPAPPQEP [Peptide 11]
[1]
  GSK-3 inhibition (in words): inactive inhibitors

## KEEPPAPPQSP [Peptide 10]
[1]
  GSK-3 inhibition (in words): inactive inhibitors

## N-Myristol-GKEAPPAPPQSEP (Myristoyl-GKEAPPAPPQSEP) [LE803-mts, control conjugate, phosphorylated serine replaced with glutamic acid, reference compound]
[1]
  GSK-3 inhibition (in words): do not inhibit

## N-Myristol-GKEAPPAPPQSP (Myristoyl-GKEAPPAPPQSP) [LS803-mts, control conjugate, phosphorylated serine replaced with serine, reference compound]
[1]
  GSK-3 inhibition (in words): do not inhibit

## insulin [reference compound]
[7]; mouse adipocytes, insulin 10 nM, data not shown
  Maximum stimulation of glucose uptake by insulin: 3 fold
